Values joined by “and” are separate entries in the source; they are usually repeats but may differ in a detail not shown here. Equal entries are not always repeated.
What was measured:
[1] = test system: Aβ from post mortem human AD brain; experiment: Assay 9 Human brain amyloid solubilisation assay; type: biochemical; set-up: key: (+): effective at solubilising plaques at more than 1 concentration relative to PBS; (−): not effective at solubilising plaques relative to PBS; conditions: relative to PBS
Protocol: Assay 9. Human Brain Amyloid Solubilisation Assay
This assay was performed in order to assess the ability of a test compound to mobilise Aβ from the insoluble to the soluble phase of an extract of tissue from post mortem human AD brain.
Up to 0.5 g of plaque-bearing cortex without meninges was homogenized using a DIAX 900 homogenizer (Heudolph and Co, Kelheim, Germany) or other suitable device for three 30-second periods at full speed in up to 2 ml of ice-cold phosphate-buffered saline, pH 7.4. To obtain the phosphate-buffered saline-extractable fraction, the homogenate was centrifuged at 100,000×g for 30 min and the supernatant removed. […]
Tris-Tricine polyacrylamide gel electrophoresis was performed by loading appropriately diluted samples on to 10% to 20% gradient gels (Novex, San Diego, Calif.) followed by transfer on to 0.2-μm nitrocellulose membrane (Bio-Rad, Hercules, Calif.). Aβ was detected by using monoclonal antibody W02, which detects residues 5 through 8, 17 (or another suitable antibody) in conjunction with horseradish peroxidase-conjugated rabbit anti-mouse IgG (Dako, Denmark), and visualized by using enhanced chemiluminescence (eg ECL; Amersham Life Science, Buckinghamshire, UK). […]
All samples were analysed several times, and gel loadings and dilutions were adjusted to fit within the quantifiable region of the standard curve. […]

[2] = Assay 16 Determination of mouse plasma levels of test compounds; type: in vivo; conditions: for Conc. in mouse plasma: oral 30 mg/kg
Description: [formula] [formula] [formula] • CLtotal=total plasma clearance after IV administration • Vdβ=volume of distribution during the elimination phase after IV administration • BA=oral bioavailability • AUCIV=area under the plasma concentration versus time profile from time zero to infinity after IV administration • AUCoral=area under the plasma concentration versus time profile from time zero to infinity after oral administration • β=terminal elimination rate constant after IV administration Assay 16 Determination of Mouse Plasma Levels of Test Compounds PBT 1061
(§1) Oral administration of PBT 1061 at 30 mg/kg, as a suspension in Na-Carboxymethyl Cellulose (CMC) was administered by oral gavage to four mice. Two mice were sacrificed 30 minutes after administration and two mice were sacrificed 60 minutes after administration. Blood was obtained by cardiac puncture and plasma separated by centrifugation.
The concentration of PBT1061 was determined by LC/MS using the ZQ instrument. The mobile phase consisted of an acetonitrile (ACN)/water gradient (containing 0.05% Formic acid) and the column was a Phenomenex Polar-RP […] 80A (50×2 mm) column.
The mouse plasma samples were directly injected following a protein precipitation with ACN. The analytical method in plasma was linear in the range of 125 to 10,000 ng/ml (R^2=0.9992). Diazepam was used as the internal standard. Recovery of PBT1061 from plasma was ˜100%.
as §1, with “1063” for “1061”
The concentration of PBT1063 was determined by LC/MS using the single quadrupole instrument. The mobile phase consisted of an acetonitrile (ACN)/water gradient (containing 0.05% Formic acid) and the column was a Phenomenex C8 4 μm 80A (50×2 mm) column.
The supplied acute toxicity mouse plasma samples (delivered Feb. 9, 2003) were directly injected following a protein precipitation with ACN. Concentrations were determined by comparison to a calibration curve prepared in rat plasma. The analytical method in plasma was linear in the range of 312 to 10,000 ng/ml (R^2=0.9976). Diazepam was used as the internal standard. Recovery of PBT1063 from plasma was ˜42.9%.

| Structure (SMILES) | Assay 9 Brain amyloid solubilisation [1] | Conc. in mouse plasma ([2]; 30 min, individual mouse) | Conc. in mouse plasma ([2]; 60 min, individual mouse) | concentration at 30 min ([2]; mouse, plasma, po, 30 mg/kg, 30 min, individual mouse (Table 2), read-out: Conc. in mouse plasma) [ng/mL] | concentration at 60 min ([2]; mouse, plasma, po, 30 mg/kg, 60 min, individual mouse (Table 2), read-out: Conc. in mouse plasma) [ng/mL] | Conc. in mouse plasma ([2]; 30 min, individual mouse (Table 2)) [ng/mL] | Conc. in mouse plasma ([2]; 60 min, individual mouse (Table 2)) [ng/mL] |
| --- | --- | --- | --- | --- | --- | --- | --- |
| O=c1c2c(Cl)cc(Cl)c(O)c2ncn1C1CC1 [PBT-1061, 5,7-Dichloro-3-cyclopropyl-8-hydroxy-3H-quinazolin-4-one] | (+) | 1826.61 ng/mL and 5475.88 ng/mL | 2417.55 ng/mL and 1115.24 ng/mL |  |  |  |  |
| O=c1c(-c2ccc(Cl)cc2)cnc2c(O)c(I)ccn12 [PBT-1063, 3-(4-Chlorophenyl)-9-hydroxy-8-iodopyrido[1,2-a]pyrimidin-4-one] |  |  |  | 413 | 331 | 279.39 | 439.49 |
| Oc1c(N2CCOCC2)ncc2cccnc12 [PBT-1053, 7-Morpholin-4-yl-[1,6]naphthyridin-8-ol] | (+) |  |  |  |  |  |  |

Reference: patent publication US7692011B2, “8-hydroxy and 8-mercapto quinazolinones” (Prana Biotechnology Limited, priority 2002, dated 2010)
